Test results published in patent US20260007681A1, “INDOLE DERIVATIVES AS ESTROGEN RECEPTOR DEGRADERS” (REGENTS OF THE UNIVERSITY OF MICHIGAN, priority 2022, published 2026).

Target: ER (Homo sapiens (Human), UniProt P03372)
Assay: Western blot analysis (Compounds B1-B278)
Assay type: cell-based
Settings: ER degradation by traditional Western blot; DC50 classes
Method in brief: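 Compound-treated cells were lysed in RIPA buffer (Tris.HCl pH 7.6, 1% NP-40, deoxycholate, 0.1% SDS) with protease inhibitors; equal protein was resolved on 10% SDS-PAGE, transferred to PVDF and immunoblotted. Band intensities were quantified and normalized to GAPDH.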

Sequence of ER (P03372 whole entry): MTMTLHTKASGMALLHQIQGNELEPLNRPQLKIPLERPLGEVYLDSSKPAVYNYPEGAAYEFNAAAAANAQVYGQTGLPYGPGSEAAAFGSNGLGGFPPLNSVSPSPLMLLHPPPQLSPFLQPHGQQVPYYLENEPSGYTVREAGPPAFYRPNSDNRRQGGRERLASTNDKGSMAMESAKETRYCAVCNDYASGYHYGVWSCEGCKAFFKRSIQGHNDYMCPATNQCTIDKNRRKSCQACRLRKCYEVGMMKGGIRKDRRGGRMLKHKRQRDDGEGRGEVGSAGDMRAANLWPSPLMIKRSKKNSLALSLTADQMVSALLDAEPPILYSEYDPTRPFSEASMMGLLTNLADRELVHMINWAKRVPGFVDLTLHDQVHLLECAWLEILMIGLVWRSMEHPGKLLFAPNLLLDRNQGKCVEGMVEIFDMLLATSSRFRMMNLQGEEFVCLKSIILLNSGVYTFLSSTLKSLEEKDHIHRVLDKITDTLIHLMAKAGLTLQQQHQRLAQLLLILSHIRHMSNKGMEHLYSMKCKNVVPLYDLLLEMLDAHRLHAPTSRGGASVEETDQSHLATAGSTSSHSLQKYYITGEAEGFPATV

| SMILES | Traditional Western Degradation Potency |
| --- | --- |
| C[C@@H]1Cc2c([nH]c3ccccc23)[C@@H](c2c(F)cc(N3CCC(N4CCC(CN5Cc6cc7c(cc6C5)C(=O)N(C5CCC(=O)NC5=O)C7=O)CC4)CC3)cc2F)N1CC(F)F (stereo partly drawn) [Compound B58, 6-((1′-(4-((1R,3R)-2-(2,2-difluoroethyl)-3-methyl-2,3,4,9-tetrahydro-1H-pyrido[3,4-b]indol-1-yl)-3,5-difluorophenyl)-[1,4′-bipiperidin]-4-yl)methyl)-2-(2,6-dioxopiperidin-3-yl)-6,7-dihydropyrrolo[3,4-f]isoindole-1,3(2H,5H)-dione] | C (“C”: >100 nM) |
| C[C@@H]1Cc2c([nH]c3ccccc23)[C@@H](c2c(F)cc(N3CCC(N4CC(C(=O)N5Cc6cc7c(cc6C5)C(=O)N(C5CCC(=O)NC5=O)C7=O)C4)CC3)cc2F)N1CC(F)F (stereo partly drawn) [Compound B59, 6-(1-(1-(4-((1R,3R)-2-(2,2-difluoroethyl)-3-methyl-2,3,4,9-tetrahydro-1H-pyrido[3,4-b]indol-1-yl)-3,5-difluorophenyl)piperidin-4-yl)azetidine-3-carbonyl)-2-(2,6-dioxopiperidin-3-yl)-6,7-dihydropyrrolo[3,4-f]isoindole-1,3(2H,5H)-dione] | C (“C”: >100 nM) |
| C[C@@H]1Cc2c([nH]c3ccccc23)[C@@H](c2c(F)cc(N3CCC(N4CC(C(=O)N5Cc6cc7c(cc6C5)C(=O)N(C5CCC(=O)NC5=O)C7)C4)CC3)cc2F)N1CC(F)F (stereo partly drawn) [Compound B60, 3-(6-(1-(1-(4-((1R,3R)-2-(2,2-difluoroethyl)-3-methyl-2,3,4,9-tetrahydro-1H-pyrido[3,4-b]indol-1-yl)-3,5-difluorophenyl)piperidin-4-yl)azetidine-3-carbonyl)-1-oxo-3,5,6,7-tetrahydropyrrolo[3,4-f]isoindol-2(1H)-yl)piperidine-2,6-dione] | B (“B”: 10-100 nM) |
| C[C@@H]1Cc2c([nH]c3ccccc23)[C@@H](c2c(F)cc(N3CC(C(=O)N4CCC(CN5Cc6cc7c(cc6C5)C(=O)N(C5CCC(=O)NC5=O)C7=O)CC4)C3)cc2F)N1CC(F)F (stereo partly drawn) [Compound B61, 6-((1-(1-(4-((1R,3R)-2-(2,2-difluoroethyl)-3-methyl-2,3,4,9-tetrahydro-1H-pyrido[3,4-b]indol-1-yl)-3,5-difluorophenyl)azetidine-3-carbonyl)piperidin-4-yl)methyl)-2-(2,6-dioxopiperidin-3-yl)-6,7-dihydropyrrolo[3,4-f]isoindole-1,3(2H,5H)-dione] | A (“A”: <10 nM) |
| C[C@@H]1Cc2c([nH]c3ccccc23)[C@@H](c2c(F)cc(N3CC(C(=O)N4CCC(N5Cc6cc7c(cc6C5)C(=O)N(C5CCC(=O)NC5=O)C7=O)CC4)C3)cc2F)N1CC(F)F (stereo partly drawn) [Compound B62, 6-(1-(1-(4-((1R,3R)-2-(2,2-difluoroethyl)-3-methyl-2,3,4,9-tetrahydro-1H-pyrido[3,4-b]indol-1-yl)-3,5-difluorophenyl)azetidine-3-carbonyl)piperidin-4-yl)-2-(2,6-dioxopiperidin-3-yl)-6,7-dihydropyrrolo[3,4-f]isoindole-1,3(2H,5H)-dione] | A (“A”: <10 nM) |
| C[C@@H]1Cc2c([nH]c3ccccc23)[C@@H](c2c(F)cc(N3CCC(CN4CC(N5Cc6cc7c(cc6C5)C(=O)N(C5CCC(=O)NC5=O)C7=O)C4)CC3)cc2F)N1CC(F)F (stereo partly drawn) [Compound B63, 6-(1-((1-(4-((1R,3R)-2-(2,2-difluoroethyl)-3-methyl-2,3,4,9-tetrahydro-1H-pyrido[3,4-b]indol-1-yl)-3,5-difluorophenyl)piperidin-4-yl)methyl)azetidin-3-yl)-2-(2,6-dioxopiperidin-3-yl)-6,7-dihydropyrrolo[3,4-f]isoindole-1,3(2H,5H)-dione] | B (“B”: 10-100 nM) |
| C[C@@H]1Cc2c([nH]c3ccccc23)[C@@H](c2c(F)cc(N3CCC(N4CCC(CN5Cc6cc7c(cc6C5)C(=O)N(C5CCC(=O)NC5=O)C7=O)CC4)C3)cc2F)N1CC(F)F (stereo partly drawn) [Compound B64, 6-((1-(1-(4-((1R,3R)-2-(2,2-difluoroethyl)-3-methyl-2,3,4,9-tetrahydro-1H-pyrido[3,4-b]indol-1-yl)-3,5-difluorophenyl)pyrrolidin-3-yl)piperidin-4-yl)methyl)-2-(2,6-dioxopiperidin-3-yl)-6,7-dihydropyrrolo[3,4-f]isoindole-1,3(2H,5H)-dione] | C (“C”: >100 nM) |
| C[C@@H]1Cc2c([nH]c3ccccc23)[C@@H](c2c(F)cc(N3CCC(CN4CCC(CN5Cc6cc7c(cc6C5)C(=O)N(C5CCC(=O)NC5=O)C7=O)CC4)CC3)cc2F)N1CC(F)F (stereo partly drawn) [Compound B65, 6-((1-((1-(4-((1R,3R)-2-(2,2-difluoroethyl)-3-methyl-2,3,4,9-tetrahydro-1H-pyrido[3,4-b]indol-1-yl)-3,5-difluorophenyl)piperidin-4-yl)methyl)piperidin-4-yl)methyl)-2-(2,6-dioxopiperidin-3-yl)-6,7-dihydropyrrolo[3,4-f]isoindole-1,3(2H,5H)-dione] | A (“A”: <10 nM) |
| C[C@@H]1Cc2c([nH]c3ccccc23)[C@@H](c2c(F)cc(N3CCC(CN4CCC(N5Cc6cc7c(cc6C5)C(=O)N(C5CCC(=O)NC5=O)C7=O)C4)CC3)cc2F)N1CC(F)F (stereo partly drawn) [Compound B66, 6-(1-((1-(4-((1R,3R)-2-(2,2-difluoroethyl)-3-methyl-2,3,4,9-tetrahydro-1H-pyrido[3,4-b]indol-1-yl)-3,5-difluorophenyl)piperidin-4-yl)methyl)pyrrolidin-3-yl)-2-(2,6-dioxopiperidin-3-yl)-6,7-dihydropyrrolo[3,4-f]isoindole-1,3(2H,5H)-dione] | A (“A”: <10 nM) |
| C[C@@H]1Cc2c([nH]c3ccccc23)[C@@H](c2c(F)cc(N3CCC(CN4CCCC(N5Cc6cc7c(cc6C5)C(=O)N(C5CCC(=O)NC5=O)C7=O)CC4)CC3)cc2F)N1CC(F)F (stereo partly drawn) [Compound B67, 6-(1-((1-(4-((1R,3R)-2-(2,2-difluoroethyl)-3-methyl-2,3,4,9-tetrahydro-1H-pyrido[3,4-b]indol-1-yl)-3,5-difluorophenyl)piperidin-4-yl)methyl)azepan-4-yl)-2-(2,6-dioxopiperidin-3-yl)-6,7-dihydropyrrolo[3,4-f]isoindole-1,3(2H,5H)-dione] | A (“A”: <10 nM) |
| C[C@@H]1Cc2c([nH]c3ccccc23)[C@@H](c2c(F)cc(N3CCC(CN4CC5(CC(N6Cc7cc8c(cc7C6)C(=O)N(C6CCC(=O)NC6=O)C8=O)C5)C4)CC3)cc2F)N1CC(F)F (stereo partly drawn) [Compound B68, 6-(2-((1-(4-((1R,3R)-2-(2,2-difluoroethyl)-3-methyl-2,3,4,9-tetrahydro-1H-pyrido[3,4-b]indol-1-yl)-3,5-difluorophenyl)piperidin-4-yl)methyl)-2-azaspiro[3.3]heptan-6-yl)-2-(2,6-dioxopiperidin-3-yl)-6,7-dihydropyrrolo[3,4-f]isoindole-1,3(2H,5H)-dione] | A (“A”: <10 nM) |
